Reference: US7005447B2, “Food product comprising hydroxymatairesinol” (Hormos Nutraceutical Oy Ltd., priority 1999, dated 2006)

Tests used:
[1] = system: low density lipoprotein (LDL) oxidation; test: Inhibition of LDL oxidation (CuCl2-induced, absorbance at 234 nm); assay type: biochemical; conditions: CuCl2, 3 hrs at +37° C.; read-out: Inhibition of LDL oxidation, IC-50
Experimental: Inhibition of LDL oxidation was estimated as described by Ahotupa et al, 1996. Shortly: LDL was isolated by precipitation with buffered heparin. After resuspendation in phosphate buffer, 20 mM CuCl2 was added and the mixture was incubated for 3 hrs at +37° C. After this, LDL lipids were extracted with chloroform-methanol, dried under nitrogen, redissolved in cyclohexane and analyzed spectrophotometrically at 234 nm. The intensity of absorbance is indicative of LDL oxidation. To test the ability of different compounds to prevent LDL oxidation, the compounds were added to the incubation mixture prior addition of CuCl2. Possible interference of test compounds with the assay procedure was excluded by measuring the absorption at 234 nm before and after the incubation period.

[2] = Superoxide anion scavenging (xanthine-xanthine oxidase system, chemiluminescence); assay type: biochemical; conditions: read-out: Superoxide anion scavenging, IC-50
Experimental: Superoxide anion scavenging method was based on the superoxide anion produced in controlled conditions by xanthine-xanthine oxidase system and detection of the generated reactive oxygen species by luminometer (Ahotupa et al., 1997). The ability of test compounds to decrease the chemiluminescence was evaluated. IC-50 concentration (concentration which prevented the chemiluminescence by 50%) was calculated.

MCF-7 cells = test: Estrogenic and antiestrogenic activity in MCF-7 cell proliferation assay; assay type: cell-based, human; parameters: Estrogenic activity, cell proliferation: dose or concentration left out as unconfirmed; conditions: 5 to 7 days, FIG. 2
Experimental: The MCF-7 cell line (human breast cancer cells) stock cultures were grown in phenol red free RPMI medium supplemented with 5% FCS, 100 U/ml penicillin and 100 μg/ml streptomycin, 10 μg/ml insulin and 1 nM 17β-estradiol in T-75 cell culture bottles. The medium was replaced with fresh ones three times per week. The stock cultures were harvested by trypsinization and suspended in 10 ml phenol red free versene solution and cenitifuged for 5 min 800 rpm. The cell pellet was carefully resuspended into RPMI medium supplemented with 5% dextran charcoal stripped FCS (dcFCS) and seeded on 6 well plates 50 000 cells/3.0 ml medium/well. On the second day of culture the medium was changed and test compounds were added. To test the estrogenicity of the lignan compounds, they were diluted in ethanol and added to cell cultures in final concentration of […]. In each proliferation assay 1.0 nM 17β-estradiol solution in ethanol was used as a positive control for estrogenic response. Equal amounts of ethanol were added to control wells. To test the antiestrogenicity both 17β-estradiol and lignan solutions were added to cell cultures. The cells were cultured for 5 to 7 days in the presence of test compounds, and the medium was changed every second day. Cell proliferation was quantified by counting the released nuclei with Coulter counter.

[3] = system: uterine growth of immature rats; test: Immature rat uterotropic test; assay type: in vivo; conditions: 7 days treatment, FIG. 3
Experimental: The estrogenicity HMR was evaluated by the uterotropic assay in immature rats which was performed as described earlier (Jordan et al. 1977), with the exception of treatment time which was 7 days instead of 3 days in the reference study. The treatment time was longer because of the expected weak estrogenicity of the test compound. The treatment of immature rats with an aromatase inhibitor (MPV-2213 ad), which prevents biosynthesis of estradiol, was used as a methodological control for non-estrogen-stimulated uterus.

[4] = system: intact and hypoandrogenic Noble strain male rats; test: Estrogenic and antiestrogenic activity in adult male rats (intact and hypoandrogenic); assay type: in vivo, rat; conditions: for Body weight / Coaculating gland relative weight / Seminal vesicle relative weight / Testis relative weight / Ventral Prostate relative weight: HMR 50 mg/kg daily; for Body weight / Coaculating gland relative weight / Seminal vesicle relative weight / Testis relative weight / Ventral Prostate relative weight / Pituitary LH (μg/pit) / Serum LH / Serum testosterone / Testis testosterone (ng/testis): four weeks, mean ± SD; for Pituitary LH (μg/pit) / Serum LH / Serum testosterone / Testis testosterone (ng/testis): 50 mg/kg HMR
Experimental: Estrogenic (antiandrogenic) and antiestrogenic effects of HMR were studied in intact and hypoandrogenic Noble strain male rats (age 6–9 month), correspondingly. The chronic hypoandrogenic state with both structural and functional changes in the male reproductive tract was induced by neonatal estrogenization (diethylstilbestrol, 10.0 μg/kg body weight in rape oil s.c. on postnatal days 1–5). These changes are known to be partly reversible by aromatase inhibitor treatment consisting daily dose of MPV-2213 ad 10–30 mg/kg body weight (Streng et al. unpublished observations).
Twelve of both intact and hypoandrogenic animals were cavaged in daily dosage of HMR 50 mg/kg body weight in rape oil. Another twelve animals from both animal models were cavaged with rape oil only as a placebo treatment. After four-week treatment the animals were sacrificed. The weights of testis and accessory sex glands (ventral prostate, seminal vesicles and coagulating gland) were measured. Serum and testis testosterone and pituitary and serum luteinizing hormone (LH) levels were measured by immunoassays (Haavisto et al. 1993).

[5] = system: DMBA-induced mammary gland tumors; test: Antitumor activity in rat DMBA-induced mammary cancer model; assay type: in vivo
Experimental: Antitumor activity of HMR in rat mammary cancer was studied as described earlier ([…] et al. 1986). Fifty-day-old female Sprague-Dawley rats were given 12.0 mg DMBA (dimethylbentz[a]anthracene) by […]. After approximately 6 weeks palpable tumors could be detected, whereafter the width (w) and the length (1) of the tumors were measured once a week to determine the tumor volumes according to a formula V=(πw^2 l)/12. The rats were also weighed once a week. The rats were allocated in 3 different groups so that the total number of tumors in the beginning of the experiment was similar in each group: (1) Control group 8 animals, (2) HMR 3.0 mg/kg 7 animals, and (3) HMR 15.0 mg/kg 7 animals, one of which had to be killed before the end of the experiment. HMR was given per os starting 9 weeks after the DMBA-induction, i.e. 3 weeks after palpable tumors appeared, and was given daily for 7.5 weeks. At the end of the experiment the tumors were classified in groups according to their growth pattern: 1. Growing tumors (PD=progressive disease); 2. Non-growing, stabilized tumors (SD=stabilized disease, no change in tumor volume or regression less than 75%; 3. Regressing tumors (PR=partial response, regression of tumor volume more than 75%); 4. Disappeared tumors (CR=complete response, no palpable tumor).

[6] = control and hypoandrogenic animals, 4-week treatment, versus placebo

SMILES: COc1cc(CC2C(=O)OCC2C(O)c2ccc(O)c(OC)c2)ccc1O (stereo not shown) [HMR, hydroxymatairesinol]
- IC50 [1]: 2 µM
- IC50 [2]: 5.6 µM
- Estrogenic activity, cell proliferation (MCF-7 cells; MCF-7, lignan alone): very weak, not statistically significant
- Antiestrogenic activity, cell proliferation (MCF-7 cells; MCF-7, lignan together with 17β-estradiol): very weak, not statistically significant
- Antiestrogenic effect (reduction of uterine weight gain) [3]: no antiestrogenic effect
- Estrogenic effect on uterine weight gain [3]: no significant estrogenic effect
- Changes in testosterone or LH concentrations [4, 6]: no significant changes
- Changes in the weights of accessory sex glands and testis [4, 6]: no significant changes
- Body weight ([4]; hypoandrogenemic (neonatally estrogenized) male rats): 455 ± 36 g
- Coaculating gland relative weight ([4]; hypoandrogenemic male rats): 70 ± 30 mg/kg body weight
- Seminal vesicle relative weight ([4]; hypoandrogenemic male rats): 266 ± 49 mg/kg body weight
- Testis relative weight ([4]; hypoandrogenemic male rats): 3276 ± 327 mg/kg body weight
- Ventral Prostate relative weight ([4]; hypoandrogenemic male rats): 378 ± 198 mg/kg body weight
- Pituitary LH (μg/pit) ([4]; hypoandrogenic male rats): 7.530 ± 2.286 μg/pit
- Serum LH ([4]; hypoandrogenic male rats): 0.854 ± 0.333 ng/mL
- Serum testosterone ([4]; hypoandrogenic male rats): 0.939 ± 0.431 ng/mL
- Testis testosterone (ng/testis) ([4]; hypoandrogenic male rats): 48.0 ± 15.2 ng/testis
- Pituitary LH (μg/pit) ([4]; intact male rats): 6.838 ± 2.061 μg/pit
- Serum LH ([4]; intact male rats): 1.088 ± 0.352 ng/mL
- Serum testosterone ([4]; intact male rats): 2.770 ± 1.421 ng/mL
- Testis testosterone (ng/testis) ([4]; intact male rats): 112.9 ± 58.5 ng/testis
- Body weight ([4]; intact male rats): 447 ± 38 g
- Coaculating gland relative weight ([4]; intact male rats): 204 ± 48 mg/kg body weight
- Seminal vesicle relative weight ([4]; intact male rats): 419 ± 59 mg/kg body weight
- Testis relative weight ([4]; intact male rats): 4223 ± 304 mg/kg body weight
- Ventral Prostate relative weight ([4]; intact male rats): 938 ± 148 mg/kg body weight
- Dose-dependency of antitumor action ([5]; HMR 3.0 versus 15.0 mg/kg): no clear dose-dependency
- Antitumor effect (growing versus stable, regressing and disappeared tumors) ([5]; female Sprague-Dawley rats, HMR 3.0 and 15.0 mg/kg per os daily for 7.5 weeks, FIG. 4): statistically very significant
